In patent US7138361B2, “Herbicidal heterocycles” (E. I. du Pont de Nemours and Company, priority 2000, dated 2006):

Experiments:
Experiment in all cases: Test C postemergence
Format in all cases: in vivo
[1] = test system: velvetleaf (Abutilon theophrasti)
Procedure, shortened: (§1)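 Preemergence: seeds sown then treated. Postemergence: plants 2–18 cm, 1- to 4-leaf. Both with surfactant-containing solvent formulation; visual injury scored 0–100 after 12–14 d.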

[2] = test system: Surinam grass (Brachiaria decumbens)
Procedure, shortened: as §1

[3] = test system: johnsongrass (Sorghum halepense)
Procedure, shortened: as §1

kochia (Kochia scoparia) = test system: kochia (Kochia scoparia)
Procedure, shortened: as §1

[4] = test system: giant foxtail (Setaria faberii)
Procedure, shortened: as §1

[5] = test system: crabgrass (Digitaria sanguinalis)
Procedure, shortened: as §1

soybean (Glycine max) = test system: soybean (Glycine max)
Procedure, shortened: as §1

[6] = test system: woolly cupgrass (Eriochloa villosa)
Procedure, shortened: as §1

[7] = test system: chickweed (Stellaria media)
Procedure, shortened: as §1

[8] = test system: common ragweed (Ambrosia elatior)
Procedure, shortened: as §1

corn (Zea mays) = test system: corn (Zea mays)
Procedure, shortened: as §1

[9] = test system: cocklebur (Xanthium strumarium)
Procedure, shortened: as §1

[10] = test system: yellow nutsedge (Cyperus esculentus)
Procedure, shortened: as §1

[11] = test system: morningglory (Ipomoea hederacea)
Procedure, shortened: as §1

[12] = test system: goosegrass (Eleusine indica)
Procedure, shortened: as §1

[13] = test system: pigweed (Amaranthus retroflexus)
Procedure, shortened: as §1

[14] = Rate 125 g/ha, scale 0 to 100, 0 no effect, 100 complete control
[15] = Rate 250 g/ha, scale 0 to 100 (0 no effect, 100 complete control)
[16] = Rate 500 g/ha, scale 0 to 100 (0 no effect, 100 complete control)

## CCC(C)c1ccn(C2SCN(c3cccc(OC(F)(F)F)c3)C2=O)n1 (stereo not shown) [Compound 40]
[1]; Rate 62 g/ha, scale 0 to 100
  Plant response rating, Velvetleaf: 0
[1]; [14]
  Plant response rating, Velvetleaf: 0
[1]; [15]
  Plant response rating, Velvetleaf: 0
[1]; [16]
  Plant response rating, Velvetleaf: 20
[2]; Rate 62 g/ha, scale 0 to 100
  Plant response rating, Surinam grass: 0
[2]; [14]
  Plant response rating, Surinam grass: 0
[2]; [15]
  Plant response rating, Surinam grass: 0
[2]; [16]
  Plant response rating, Surinam grass: 0
[3]; Rate 62 g/ha, scale 0 to 100
  Plant response rating, Johnsongrass: 0
[3]; [14]
  Plant response rating, Johnsongrass: 0
[3]; [15]
  Plant response rating, Johnsongrass: 20
[3]; [16]
  Plant response rating, Johnsongrass: 30
Kochia (Kochia scoparia); Rate 62 g/ha, scale 0 to 100
  Plant response rating, Kochia: 20
Kochia (Kochia scoparia); [14]
  Plant response rating, Kochia: 50
Kochia (Kochia scoparia); [15]
  Plant response rating, Kochia: 60
Kochia (Kochia scoparia); [16]
  Plant response rating, Kochia: 70
[4]; Rate 62 g/ha, scale 0 to 100
  Plant response rating, Foxtail, Giant: 0
[4]; [14]
  Plant response rating, Foxtail, Giant: 0
[4]; [15]
  Plant response rating, Foxtail, Giant: 0
[4]; [16]
  Plant response rating, Foxtail, Giant: 0
[5]; Rate 62 g/ha, scale 0 to 100
  Plant response rating, Crabgrass: 0
[5]; [14]
  Plant response rating, Crabgrass: 0
[5]; [15]
  Plant response rating, Crabgrass: 0
[5]; [16]
  Plant response rating, Crabgrass: 0
Soybean (Glycine max); Rate 62 g/ha, scale 0 to 100
  Plant response rating, Soybean: 0
Soybean (Glycine max); [14]
  Plant response rating, Soybean: 0
Soybean (Glycine max); [15]
  Plant response rating, Soybean: 0
Soybean (Glycine max); [16]
  Plant response rating, Soybean: 0
[6]; Rate 62 g/ha, scale 0 to 100
  Plant response rating, Cupgrass, Woolly: 0
[6]; [14]
  Plant response rating, Cupgrass, Woolly: 0
[6]; [15]
  Plant response rating, Cupgrass, Woolly: 0
[6]; [16]
  Plant response rating, Cupgrass, Woolly: 0
[7]; Rate 62 g/ha, scale 0 to 100
  Plant response rating, Chickweed: 0
[7]; [14]
  Plant response rating, Chickweed: 0
[7]; [15]
  Plant response rating, Chickweed: 0
[7]; [16]
  Plant response rating, Chickweed: 0
[8]; Rate 62 g/ha, scale 0 to 100
  Plant response rating, Ragweed, Common: 0
[8]; [14]
  Plant response rating, Ragweed, Common: 0
[8]; [15]
  Plant response rating, Ragweed, Common: 30
[8]; [16]
  Plant response rating, Ragweed, Common: 40
Corn (Zea mays); Rate 62 g/ha, scale 0 to 100
  Plant response rating, Corn: 0
Corn (Zea mays); [14]
  Plant response rating, Corn: 0
Corn (Zea mays); [15]
  Plant response rating, Corn: 20
Corn (Zea mays); [16]
  Plant response rating, Corn: 30
[9]; Rate 62 g/ha, scale 0 to 100
  Plant response rating, Cocklebur: 0
[9]; [14]
  Plant response rating, Cocklebur: 0
[9]; [15]
  Plant response rating, Cocklebur: 0
[9]; [16]
  Plant response rating, Cocklebur: 0
[10]; Rate 62 g/ha, scale 0 to 100
  Plant response rating, Nutsedge: 0
[10]; [14]
  Plant response rating, Nutsedge: 0
[10]; [15]
  Plant response rating, Nutsedge: 0
[10]; [16]
  Plant response rating, Nutsedge: 20
[11]; Rate 62 g/ha, scale 0 to 100
  Plant response rating, Morningglory: 0
[11]; [14]
  Plant response rating, Morningglory: 0
[11]; [15]
  Plant response rating, Morningglory: 0
[11]; [16]
  Plant response rating, Morningglory: 0
[12]; Rate 62 g/ha, scale 0 to 100
  Plant response rating, Goosegrass: 0
[12]; [14]
  Plant response rating, Goosegrass: 0
[12]; [15]
  Plant response rating, Goosegrass: 0
[12]; [16]
  Plant response rating, Goosegrass: 20
[13]; Rate 62 g/ha, scale 0 to 100
  Plant response rating, Pigweed: 0
[13]; [14]
  Plant response rating, Pigweed: 0
[13]; [15]
  Plant response rating, Pigweed: 50
[13]; [16]
  Plant response rating, Pigweed: 50

## CCC(C)c1ccn(C2CCN(c3ccc(C)c(OC)c3)C2=O)n1 (stereo not shown) [Compound 80]
[1]; Rate 62 g/ha, scale 0 to 100
  Plant response rating, Velvetleaf: 20
[1]; [14]
  Plant response rating, Velvetleaf: 20
[1]; [15]
  Plant response rating, Velvetleaf: 20
[1]; [16]
  Plant response rating, Velvetleaf: 20
[2]; Rate 62 g/ha, scale 0 to 100
  Plant response rating, Surinam grass: 0
[2]; [14]
  Plant response rating, Surinam grass: 0
[2]; [15]
  Plant response rating, Surinam grass: 0
[2]; [16]
  Plant response rating, Surinam grass: 0
[3]; Rate 62 g/ha, scale 0 to 100
  Plant response rating, Johnsongrass: 0
[3]; [14]
  Plant response rating, Johnsongrass: 0
[3]; [15]
  Plant response rating, Johnsongrass: 0
[3]; [16]
  Plant response rating, Johnsongrass: 0
Kochia (Kochia scoparia); Rate 62 g/ha, scale 0 to 100
  Plant response rating, Kochia: 0
Kochia (Kochia scoparia); [14]
  Plant response rating, Kochia: 0
Kochia (Kochia scoparia); [15]
  Plant response rating, Kochia: 30
Kochia (Kochia scoparia); [16]
  Plant response rating, Kochia: 50
[4]; Rate 62 g/ha, scale 0 to 100
  Plant response rating, Foxtail, Giant: 0
[4]; [14]
  Plant response rating, Foxtail, Giant: 0
[4]; [15]
  Plant response rating, Foxtail, Giant: 0
[4]; [16]
  Plant response rating, Foxtail, Giant: 20
[5]; Rate 62 g/ha, scale 0 to 100
  Plant response rating, Crabgrass: 0
[5]; [14]
  Plant response rating, Crabgrass: 0
[5]; [15]
  Plant response rating, Crabgrass: 0
[5]; [16]
  Plant response rating, Crabgrass: 30
Soybean (Glycine max); Rate 62 g/ha, scale 0 to 100
  Plant response rating, Soybean: 50
Soybean (Glycine max); [14]
  Plant response rating, Soybean: 60
Soybean (Glycine max); [15]
  Plant response rating, Soybean: 70
Soybean (Glycine max); [16]
  Plant response rating, Soybean: 90
[6]; Rate 62 g/ha, scale 0 to 100
  Plant response rating, Cupgrass, Woolly: 0
[6]; [14]
  Plant response rating, Cupgrass, Woolly: 0
[6]; [15]
  Plant response rating, Cupgrass, Woolly: 0
[6]; [16]
  Plant response rating, Cupgrass, Woolly: 0
[7]; Rate 62 g/ha, scale 0 to 100
  Plant response rating, Chickweed: 20
[7]; [14]
  Plant response rating, Chickweed: 20
[7]; [15]
  Plant response rating, Chickweed: 30
[7]; [16]
  Plant response rating, Chickweed: 60
[8]; Rate 62 g/ha, scale 0 to 100
  Plant response rating, Ragweed, Common: 0
[8]; [14]
  Plant response rating, Ragweed, Common: 0
[8]; [15]
  Plant response rating, Ragweed, Common: 50
[8]; [16]
  Plant response rating, Ragweed, Common: 80
Corn (Zea mays); Rate 62 g/ha, scale 0 to 100
  Plant response rating, Corn: 0
Corn (Zea mays); [14]
  Plant response rating, Corn: 0
Corn (Zea mays); [15]
  Plant response rating, Corn: 0
Corn (Zea mays); [16]
  Plant response rating, Corn: 0
[9]; Rate 62 g/ha, scale 0 to 100
  Plant response rating, Cocklebur: 20
[9]; [14]
  Plant response rating, Cocklebur: 30
[9]; [15]
  Plant response rating, Cocklebur: 30
[9]; [16]
  Plant response rating, Cocklebur: 40
[10]; Rate 62 g/ha, scale 0 to 100
  Plant response rating, Nutsedge: 0
[10]; [14]
  Plant response rating, Nutsedge: 20
[10]; [15]
  Plant response rating, Nutsedge: 20
[10]; [16]
  Plant response rating, Nutsedge: 20
[11]; Rate 62 g/ha, scale 0 to 100
  Plant response rating, Morningglory: 50
[11]; [14]
  Plant response rating, Morningglory: 60
[11]; [15]
  Plant response rating, Morningglory: 60
[11]; [16]
  Plant response rating, Morningglory: 100
[12]; Rate 62 g/ha, scale 0 to 100
  Plant response rating, Goosegrass: 0
[12]; [14]
  Plant response rating, Goosegrass: 0
[12]; [15]
  Plant response rating, Goosegrass: 0
[12]; [16]
  Plant response rating, Goosegrass: 0
[13]; Rate 62 g/ha, scale 0 to 100
  Plant response rating, Pigweed: 20
[13]; [14]
  Plant response rating, Pigweed: 40
[13]; [16]
  Plant response rating, Pigweed: 70
